Measured values from patent US9695153B2, “Oligooxopiperazines for p53 reactivation” (New York University, priority 2013, dated 2017).

Key:
[1] = tested on: p300, p53, p21, miR-34a, miR-200c expression in UMSCC74A cells; test: Quantitative real-time PCR (TaqMan); type: cell-based, human; details: 10 μM, 24 hours
Experimental: (§1) Cells were extracted for total RNA using the TRIzol® reagent (Invitrogen) or TaqMan PreAmp Cells-to-CT kit (Applied Biosystems). Expression of p300, p53, p21, miR-34a and miR-200c were determined using the Applied Biosystems 7900HT Fast Real-Time PCR System with validated TaqMan gene expression assays (Applied Biosystems). p53, p300, and p21 expression were normalized to GADPH and miR-34a and miR-200c expression were normalized to RNU44 using the ΔΔCt method.

[2] = tested on: p300, p53, p21, miR-34a, miR-200c expression in UMSCC47 cells; test: Quantitative real-time PCR (TaqMan); type: cell-based, human; details: UMSCC47, 10 μM, 24 hours
Experimental: as §1

UMSCC47 cells [3] = test: Apoptosis, Annexin V FACS; type: cell-based, human; details: UMSCC47, 10 μM, 24 hours, vs vehicle
Experimental: (§2) Cell proliferation was assessed using the MTT reagent (Roche Molecular Biochemicals, Nutley, N.J.) to detect metabolic active cells. Absorbance was measured at 570 nm in the Spectra Max 190 ELISA reader (Molecular Devices, Sunnyvale, Calif.) after overnight incubation. For clonogenic survival, 200 cells per well were plated in complete growth media and allowed to grow until visible colonies were formed (14 days). Cell colonies were fixed with cold methanol, stained with 0.25% crystal violet in 25% methanol, washed, and air dried. For apoptosis, cells were harvested, washed with cold PBS, and co-stained with Annexin V and propidium iodide according to the manufacturer's protocol (ApoAlert Annexin V-FITC Apoptosis Kit; Clontech). Apoptotic cells were analyzed using BD FACS Calibur (BD Biosciences Corporation, Franklin Lakes, N.J.) at The Ohio State University Comprehensive Cancer Center Analytical Cytometry Core.

[4] = tested on: total and acetylated p53 in UMSCC74A cells; test: Western blot of total and acetylated[K382] p53; type: cell-based, human; details: 10 μM, 24 hours
Experimental: (§3) Whole cell lysates were mixed with Laemmli loading buffer, boiled, separated by SDS-PAGE, and transferred to a nitrocellulose membrane. Subsequently, immunoblot analyses were performed using antibodies specific to V5 (Invitrogen), p53 (sc-126, Santa Cruz Biotechnology, Santa Cruz, Calif.), or acetylated[[…]]-p53 (2525, Cell Signaling Technology). The signal was developed using the SuperSignal Western Blotting Kit (Pierce, Rockford, Ill.).

[5] = tested on: total and acetylated p53 in UMSCC47 cells; test: Western blot of total and acetylated[K382] p53; type: cell-based, human; details: 24 hours; for p53 accumulation and acetylated p53 levels: UMSCC47, 10 μM
Experimental: as §3

UMSCC47 cells [6] = test: Clonogenic survival; type: cell-based, human; details: UMSCC47, 10 μM, 14 days, vs vehicle
Experimental: as §2

[7] = target: T1, HPV16 E6-p300 association in UMSCC47 cells (Homo sapiens, UniProt Q09472); test: Immunoprecipitation, HPV16 E6-p300 association; type: cell-based; details: UMSCC47, 10 μM, 24 hours
T1 construct: endogenous in cells; host or cells: UMSCC47 (HPV16-positive HNSCC cells)
Experimental: Cells were lysed with NP buffer [50 mM Tris (pH 8.0), 150 mM NaCl, 0.5% deoxycholate, 0.1% SDS, and 1.0% NP-40] containing 1× Protease Inhibitor Cocktail (Roche, Switzerland) at 4° C. with gentle rocking for 15 min. The supernatant was pre-cleared to block nonspecific binding with 50 μL protein A/G Agarose beads (Pierce Biotechnology) that had been pre-washed with NP buffer before use. Equal amounts of anti-E6 antibody (Abcam), anti-p300 antibody (Millipore), or IgG antibody (Cell Signaling) were added to the respective samples. After 4 hours incubation at 4° C., 50 μL pre-washed protein A/G-agarose beads were added to each tube and immunoprecipitation was performed by rocking overnight at 4° C. The immunoprecipitated complexes were washed with NP buffer and then eluted using 2×SDS sample buffer. Eluted sample and 10% of input were resolved by SDS-PAGE for Western blot analysis with anti-E6, anti-p300, or anti-V5 antibodies.

UMSCC47 cells [8] = test: Cell proliferation (MTT); type: cell-based, human; details: for cell proliferation, single-agent: UMSCC47, 10 μM; for cell proliferation, in combination with cis-platinum: UMSCC47, 10 μM with cis-platinum 10 μM
Experimental: as §2

UMSCC74A cells = test: Cell proliferation (MTT); type: cell-based, human; details: for cell proliferation, single-agent: HPV-negative UMSCC74A, 10 μM; for efficacy of cis-platinum on proliferation, combination: UMSCC74A, 10 μM with cis-platinum 10 μM
Experimental: as §2

[9] = tested on: p53 transcriptional activity in UMSCC47 cells; test: p53 transcriptional activity, Cignal p53 luciferase reporter; type: cell-based, human; details: 24 hours; for p53 activity, increase: vs vehicle
Experimental: Cells were transfected with 100 ng of Cignal p53 reporter (SABiosciences, Valencia, Calif.) using Lipofectamine 2000. Cignal p53 reporter contains tandem repeats of the p53 consensus transcriptional response element. After 48 hours, cells were washed with cold PBS, lysed in passive lysis buffer (Promega), and measured for Firefly/Renilla dual luciferase activities in a luminometer using the Dual-Light System (Applied Biosystems, Foster City, Calif.). […] to control for transfection efficiency. A modification to the protocol was used for compound treatment. UMSCC47 cells were transfected with 100 ng of Cignal p53 reporter. After 24 hours, cells were treated with vehicle, CH1iB (10 μM), cis-platinum (10 μM), or combination of CH1iB (10 μM) and cis-platinum (10 μM) and measured for Firefly/Renilla dual luciferase activities 24 hours post-treatment.

UMSCC47 cells [10] = test: Tumorsphere formation; type: cell-based, human; details: UMSCC47, 10 μM, 7 days, vs vehicle
Experimental: Cells were harvested and seeded in a serum-free defined medium consisting of KSF medium supplemented with epidermal growth factor, basic fibroblast growth factor, insulin, and hydrocortisone in low-attachment plates (Corning Incorporated, Corning, N.Y.) for tumorspheres. Tumorsphere formation efficiency was calculated as the number of tumorspheres (≧50 μm in diameter) formed in 7 days divided by the original number of cells seeded. Tumorsphere diameter was measured using NIS-Elements software.

[11] = tested on: p53 transcriptional activity in UMSCC74A cells; test: p53 transcriptional activity, Cignal p53 luciferase reporter; type: cell-based, human; details: HPV-negative UMSCC74A, 10 μM, 24 hours
[12] = tested on: IMR90 (human normal fibroblasts); test: Cell proliferation (MTT); type: cell-based; details: for efficacy of cis-platinum on proliferation, combination: IMR90 fibroblasts, 10 μM with cis-platinum 10 μM; for cell proliferation, single-agent: human normal IMR90 fibroblasts, 10 μM
Experimental: as §2

[13] = UMSCC47, CH1iB 10 μM and cis-platinum 10 μM
[14] = HPV-positive UMSCC47 cells, 10 μM

T1 sequence (Q09472 whole entry): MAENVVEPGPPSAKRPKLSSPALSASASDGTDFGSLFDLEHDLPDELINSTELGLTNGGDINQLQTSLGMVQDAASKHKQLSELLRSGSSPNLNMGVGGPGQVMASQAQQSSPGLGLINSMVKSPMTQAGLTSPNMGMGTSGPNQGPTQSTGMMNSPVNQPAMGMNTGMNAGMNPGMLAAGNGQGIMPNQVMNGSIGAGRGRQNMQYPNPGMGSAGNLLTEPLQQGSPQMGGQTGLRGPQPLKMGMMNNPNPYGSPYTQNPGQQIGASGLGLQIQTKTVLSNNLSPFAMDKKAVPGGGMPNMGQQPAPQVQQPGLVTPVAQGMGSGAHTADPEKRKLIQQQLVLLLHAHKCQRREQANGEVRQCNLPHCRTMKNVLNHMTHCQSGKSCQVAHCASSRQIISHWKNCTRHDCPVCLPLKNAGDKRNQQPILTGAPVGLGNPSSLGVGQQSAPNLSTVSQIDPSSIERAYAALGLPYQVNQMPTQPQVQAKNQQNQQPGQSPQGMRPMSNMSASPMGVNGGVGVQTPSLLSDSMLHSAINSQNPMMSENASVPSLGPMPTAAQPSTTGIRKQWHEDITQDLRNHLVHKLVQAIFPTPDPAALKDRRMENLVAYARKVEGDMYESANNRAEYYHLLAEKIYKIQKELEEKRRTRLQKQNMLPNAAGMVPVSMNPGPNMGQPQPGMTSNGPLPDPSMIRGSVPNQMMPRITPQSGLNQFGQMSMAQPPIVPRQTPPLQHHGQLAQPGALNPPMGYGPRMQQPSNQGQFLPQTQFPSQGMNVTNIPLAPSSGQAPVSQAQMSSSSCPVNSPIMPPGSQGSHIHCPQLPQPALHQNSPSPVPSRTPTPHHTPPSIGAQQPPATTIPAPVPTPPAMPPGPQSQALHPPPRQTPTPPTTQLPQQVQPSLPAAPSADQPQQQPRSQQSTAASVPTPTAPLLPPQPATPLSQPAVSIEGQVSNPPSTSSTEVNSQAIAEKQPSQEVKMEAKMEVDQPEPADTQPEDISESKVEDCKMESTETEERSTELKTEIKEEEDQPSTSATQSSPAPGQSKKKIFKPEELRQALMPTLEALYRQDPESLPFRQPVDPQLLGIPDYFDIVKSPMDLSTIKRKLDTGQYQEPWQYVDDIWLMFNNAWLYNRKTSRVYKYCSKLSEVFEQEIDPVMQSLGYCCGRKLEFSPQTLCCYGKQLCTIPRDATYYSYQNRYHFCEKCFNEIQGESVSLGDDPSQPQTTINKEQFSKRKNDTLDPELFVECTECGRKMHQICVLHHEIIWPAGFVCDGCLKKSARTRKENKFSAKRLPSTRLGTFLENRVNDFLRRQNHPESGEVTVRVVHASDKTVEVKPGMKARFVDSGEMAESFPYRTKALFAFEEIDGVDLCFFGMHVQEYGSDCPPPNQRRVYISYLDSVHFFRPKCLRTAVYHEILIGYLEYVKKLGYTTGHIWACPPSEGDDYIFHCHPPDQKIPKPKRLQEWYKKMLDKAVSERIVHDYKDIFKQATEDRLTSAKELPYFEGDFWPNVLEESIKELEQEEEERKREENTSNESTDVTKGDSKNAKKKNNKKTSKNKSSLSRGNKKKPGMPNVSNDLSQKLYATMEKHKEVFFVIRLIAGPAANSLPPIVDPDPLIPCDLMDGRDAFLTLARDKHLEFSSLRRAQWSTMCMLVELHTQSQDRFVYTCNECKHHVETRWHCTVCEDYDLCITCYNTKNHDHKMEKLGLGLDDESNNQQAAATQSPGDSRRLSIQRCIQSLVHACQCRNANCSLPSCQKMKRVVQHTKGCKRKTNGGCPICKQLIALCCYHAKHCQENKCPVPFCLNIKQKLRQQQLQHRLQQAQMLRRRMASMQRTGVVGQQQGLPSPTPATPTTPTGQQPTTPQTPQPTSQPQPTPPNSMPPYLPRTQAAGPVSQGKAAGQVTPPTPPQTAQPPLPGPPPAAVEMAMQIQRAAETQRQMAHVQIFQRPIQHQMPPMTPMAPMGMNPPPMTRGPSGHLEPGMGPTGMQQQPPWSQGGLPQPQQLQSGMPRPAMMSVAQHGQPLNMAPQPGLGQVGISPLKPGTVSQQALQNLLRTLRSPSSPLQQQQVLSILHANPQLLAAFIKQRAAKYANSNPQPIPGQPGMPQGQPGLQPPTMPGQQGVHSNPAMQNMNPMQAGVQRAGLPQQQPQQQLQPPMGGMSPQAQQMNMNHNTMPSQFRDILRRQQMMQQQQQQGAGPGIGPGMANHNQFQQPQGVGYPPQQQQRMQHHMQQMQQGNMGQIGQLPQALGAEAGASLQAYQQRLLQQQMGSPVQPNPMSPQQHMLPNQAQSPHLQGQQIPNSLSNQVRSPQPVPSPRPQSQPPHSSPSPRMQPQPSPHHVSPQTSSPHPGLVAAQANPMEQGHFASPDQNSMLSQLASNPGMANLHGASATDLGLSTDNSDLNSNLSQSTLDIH

| Substance | expression of p300, p53, and p53-regulated genes [1] | p21, miR-34a, and miR-200c expression [2] | apoptosis, enhancement (UMSCC47 cells [3]) [%] | p53 levels [4] | p53 accumulation and acetylated p53 levels [5] | effect of cis-platinum on p53 accumulation and acetylation, combination [5, 13] | clonogenic survival, reduction (inhibition) (UMSCC47 cells [6]) [%] | association between E6 and p300 [7] | cell proliferation, single-agent (UMSCC47 cells [8]) | cell proliferation, in combination with cis-platinum (UMSCC47 cells [8]) | cell proliferation, single-agent (UMSCC74A cells) | efficacy of cis-platinum on proliferation, combination (UMSCC74A cells) | p53 activity, increase [9, 14] [%] | effect of cis-platinum on p53 activity, combination [9, 13] | tumorsphere formation, reduction (UMSCC47 cells [10]) [%] | p53 activity [11] | efficacy of cis-platinum on proliferation, combination [12] | cell proliferation, single-agent [12] | p53 activity [9, 14] |
| --- | --- | --- | --- | --- | --- | --- | --- | --- | --- | --- | --- | --- | --- | --- | --- | --- | --- | --- | --- |
| XELA*RALDQ-NH2 (ELXRALDQ; not fully specified; hydrogen bond surrogate crosslink; C-terminal amide; CH1iB) [hydrogen bond surrogate helix mimic of HIF-1α targeting site B of p300 CH1] | unchanged | modest but significant increase | 353 | did not modulate | enhanced | potentiated the effect of cis-platinum | 35 | reduced | inhibited | potentiated the anti-proliferative efficacy of cis-platinum | had no effect | did not augment | 71 | potentiated the effect of cis-platinum | 20 | did not modulate | did not augment | had no effect |  |
| XTAA*DCEYNAR (TAXDCEYNAR; not fully specified; hydrogen bond surrogate crosslink; CH1iA) [hydrogen bond surrogate stabilized α-helical mimic of HIF-1α targeting site A of p300 CH1, reference compound] | unchanged |  |  | did not modulate | had no effect |  |  | not | inactive |  | had no effect | did not augment |  |  |  | did not modulate | did not augment | had no effect | had no effect |
| XELA*RAADQ-NH2 (ELXRAADQ; not fully specified; hydrogen bond surrogate crosslink; C-terminal amide; CH1iB-MUT) [specificity control for CH1iB in which one leucine residue is mutated to alanine] |  |  |  |  |  |  |  |  | no effect | no effect |  |  | 14 |  |  |  |  |  |  |
